Measurements from patent publication US20090203577A1 (EXELIXIS, INC., priority 2005, published 2009).
Read-outs that look alike come from different tables or passages of the source.

Biological target: T1, human farnesoid X receptor (Homo sapiens, UniProt Q96RI1)
T1 construct: CMX-farnesoid X receptor (full length human farnesoid X receptor); expressed in transfected cells; host or cells: CV-1 African Green Monkey Kidney cells
T1 sequence (Q96RI1 1-472 isoform Q96RI1-2): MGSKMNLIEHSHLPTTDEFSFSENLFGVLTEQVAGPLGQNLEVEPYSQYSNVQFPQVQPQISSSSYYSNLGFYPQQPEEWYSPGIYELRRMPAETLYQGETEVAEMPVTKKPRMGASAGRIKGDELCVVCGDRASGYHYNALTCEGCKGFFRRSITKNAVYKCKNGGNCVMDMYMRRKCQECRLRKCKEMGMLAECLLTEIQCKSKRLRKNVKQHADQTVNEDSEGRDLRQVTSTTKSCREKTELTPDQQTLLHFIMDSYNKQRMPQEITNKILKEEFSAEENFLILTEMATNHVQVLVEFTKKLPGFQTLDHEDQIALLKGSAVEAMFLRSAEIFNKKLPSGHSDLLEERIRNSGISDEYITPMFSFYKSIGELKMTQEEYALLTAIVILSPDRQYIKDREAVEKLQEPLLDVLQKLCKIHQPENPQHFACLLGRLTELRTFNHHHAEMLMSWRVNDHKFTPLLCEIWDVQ
T1 sequence (P19793 1-462 partner): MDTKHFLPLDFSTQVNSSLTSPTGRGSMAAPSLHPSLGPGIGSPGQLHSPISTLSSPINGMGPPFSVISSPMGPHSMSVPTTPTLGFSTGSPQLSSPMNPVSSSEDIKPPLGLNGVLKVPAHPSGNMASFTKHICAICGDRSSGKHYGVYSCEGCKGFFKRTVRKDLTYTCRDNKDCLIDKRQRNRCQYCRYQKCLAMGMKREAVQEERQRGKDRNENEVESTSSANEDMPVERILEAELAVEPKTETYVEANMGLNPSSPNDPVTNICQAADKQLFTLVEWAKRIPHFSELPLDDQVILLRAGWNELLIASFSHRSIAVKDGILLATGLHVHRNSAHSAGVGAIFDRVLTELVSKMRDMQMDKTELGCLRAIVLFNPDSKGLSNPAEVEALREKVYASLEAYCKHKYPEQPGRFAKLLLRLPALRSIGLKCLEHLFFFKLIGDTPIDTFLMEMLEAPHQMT
Test: FXR in vitro assays (farnesoid X receptor/ECREx7 co-transfection assay, TR-FRET assay), Table I
Assay type: cell-based
Conditions: for Emax: read-out: % Efficacy
Description: The basic co-transfection protocol for measuring the farnesoid X receptor activity is as follows. CV-1 African Green Monkey Kidney cells were plated 24 hours before transfection to achieve approximately 70-80 percent confluency. […] The assay was allowed to continue for an additional 18-20 hours, after which the cells were lysed, with lysis buffer (1% triton X 100, 10% glycerol, 5 mM Dithiothreitol, 1 mM EGTA, 25 mM Tricine, pH 7.8) and the luciferase activity measured in the presence of Luciferase assay buffer (0.73 mM ATP, 22.3 mm Tricine, 0.11 mM EGTA, 0.55 mM Luciferin, 0.15 mM Coenzyme A, 0.5 mM HEPES, 10 mM Magnesium sulphatc) on a standard luminometer plate reader (PE Biosystems, NorthStar Reader), using recommended operating instructions and conditions.
The dose response curves are generated from an 8 point curve with concentrations differing by ½ LOG units. Each point represents the average of 4 wells of data from a 384 well plate. A curve for the data is generated by using the equation:
Y=Bottom+(Top−Bottom)/(1+10̂((Log EC50−X)*HillSlope))
The EC50/IC50 is therefore defined as the concentration at which an agonist or antagonist elicits a response that is half way between the Top (maximum) and Bottom (baseline) values. The EC50/IC50 values represented are the averages of at least 3 independent experiments.

[1] = agonist activity, one or more of the in vitro assays, read-out: EC50

Structure (SMILES) | EC50 [1] [nM] | Emax [%] | EC50 [nM]
CC(C)OC(=O)C1=CN(C(=O)c2ccc(F)c(F)c2F)CC(C)(C)c2c1[nH]c1ccccc21 [Example 77, 1-methylethyl 1,1-dimethyl-3-[(2,3,4-trifluorophenyl)carbonyl]-1,2,3,6-tetrahydroazepino[4,5-b]indole-5-carboxylate] | 1 to 10 | > 100 | 
CC(C)OC(=O)C1=CN(C(=O)c2c(F)cc(F)cc2F)CC(C)(C)c2c1[nH]c1ccccc21 [Example 78, 1-methylethyl 1,1-dimethyl-3-[(2,4,6-trifluorophenyl)carbonyl]-1,2,3,6-tetrahydroazepino[4,5-b]indole-5-carboxylate] | 10 to 100 | > 100 | 
CC(C)OC(=O)C1=CN(C(=O)c2cc(F)c(F)cc2F)CC(C)(C)c2c1[nH]c1ccccc21 [Example 79, 1-methylethyl 1,1-dimethyl-3-[(2,4,5-trifluorophenyl)carbonyl]-1,2,3,6-tetrahydroazepino[4,5-b]indole-5-carboxylate] | 1 to 10 | > 100 | 
CC(C)OC(=O)C1=CN(C(=O)c2ccc(C(F)(F)F)c(F)c2)CC(C)(C)c2c1[nH]c1ccccc21 [Example 84, 1-methylethyl 3-{[3-fluoro-4-(trifluoromethyl)phenyl]car-bonyl}-1,1-dimethyl-1,2,3,6-tetrahydroazepino[4,5-b]indole-5-carboxylate] | 10 to 100 | > 100 | 
Cc1ccc(C(=O)N2C=C(C(=O)OC(C)C)c3[nH]c4ccccc4c3C(C)(C)C2)cc1 [Example 87, 1-methylethyl 1,1-dimethyl-3-[(4-methylphenyl)carbonyl]-1,2,3,6-tetrahydroazepino[4,5-b]indole-5-carboxylate] | 10 to 100 | > 100 | 
COc1cccc(C(=O)N2C=C(C(=O)OC(C)C)c3[nH]c4ccccc4c3C(C)(C)C2)c1 [Example 88, 1-methylethyl 1,1-dimethyl-3-{[3-(methyloxy)phenyl]carbonyl}-1,2,3,6-tetrahydroazepino[4,5-b]indole-5-carboxylate] | 10 to 100 | > 100 | 
COc1ccc(C(=O)N2C=C(C(=O)OC(C)C)c3[nH]c4ccccc4c3C(C)(C)C2)cc1 [Example 89, 1-methylethyl 1,1-dimethyl-3-{[4-(methyloxy)phenyl)carbonyl}-1,2,3,6-tetrahydroazepino[4,5-b]indole-5-carboxylate] | 1 to 10 | > 100 | 
CC(C)OC(=O)C1=CN(C(=O)c2cccc3c2OC(F)(F)O3)CC(C)(C)c2c1[nH]c1ccccc21 [Example 91, 1-methylethyl 3-[(2,2-difluoro-1,3-benzodioxol-4-yl)carbonyl]-1,1-dimethyl-1,2,3,6-tetrahydroazepino[4,5-b]indole-5-carboxylate] | 10 to 100 | > 100 | 
CC(C)OC(=O)C1=CN(C(=O)c2ccc3c(c2)OC(F)(F)O3)CC(C)(C)c2c1[nH]c1ccccc21 [Example 92, 1-methylethyl 3-[(2,2-difluoro-1,3-benzodioxol-5-yl)carbonyl]-1,1-dimethyl-1,2,3,6-tetrahydroazepino[4,5-b]indole-5-carboxylate] | 100 to 1000 | > 100 | 
CC(C)OC(=O)C1=CN(C(=O)c2ccc(C3CCNCC3)cc2)CC(C)(C)c2c1[nH]c1ccccc21 [Example 94, 1-methylethyl 1,1-dimethyl-3-[(4-piperidin-4-ylphenyl)carbonyl]-1,2,3,6-tetrahydroazepino[4,5-b]indole-5-carboxylate] | > 10000 |  | 
CC(C)OC(=O)C1=CN(C(=O)c2cccc(C3CCNCC3)c2)CC(C)(C)c2c1[nH]c1ccccc21 [Example 95, 1-methylethyl 1,1-dimethyl-3-[(3-piperidin-4-ylphenyl)carbonyl]-1,2,3,6-tetrahydroazepino[4,5-b]indole-5-carboxylate] | > 10000 |  | 
CCN(CC)CCNC(=O)Oc1ccc2c3c([nH]c2c1)C(C(=O)OC(C)C)=CN(C(=O)c1ccc(F)c(F)c1)CC3(C)C [Example 97, 1-methylethyl 8-[({[2-(diethylamino)ethyl]amino}carbonyl)oxy]-3-[(3,4-difluorophenyl)carbonyl]-1,1-dimethyl-1,2,3,6-tetrahydroazepino[4,5-b]indole-5-carboxylate] |  | > 100 | 10 to 100
CC(C)OC(=O)C1=CN(C(=O)c2ccc(F)c(F)c2)CC(C)(C)c2c1[nH]c1cc(OCCN(C)C)ccc21 [Example 98, 1-methylethyl 3-[(3,4-difluorophenyl)carbonyl]-8-{[2-(dimethylamino)ethyl]oxy}-1,1-dimethyl-1,2,3,6-tetrahydroazepino[4,5-b]indole-5-carboxylate] | 100 to 1000 | < 40 | 
CC(C)OC(=O)C1=CN(C(=O)c2ccc(F)c(F)c2)CC(C)(C)c2c1[nH]c1cc(OCCCN(C)C)ccc21 [Example 99, 1-methylethyl 3-[(3,4-difluorophenyl)carbonyl]-8-{[3-(dimethylamino)propyl]oxy}-1,1-dimethyl-1,2,3,6-tetrahydroazepino[4,5-b]indole-5-carboxylate] | 100 to 1000 | 40 to 60 | 
COc1ccc(C(=O)N2C=C(C(=O)OC(C)C)c3[nH]c4ccccc4c3C(C)(C)C2)cc1OC [Example 100, 1-methylethyl 3-{[3,4-bis(methyloxy)phenyl]car-bonyl}-1,1-dimethyl-1,2,3,6-tetrahydroazepino[4,5-b]indole-5-carboxylate] | 10 to 100 | > 100 | 
CC1(C)CN(C(=O)c2ccc(F)c(F)c2)C=C(C(=O)NCCC(=O)O)c2[nH]c3ccccc3c21 [Example 101, N-({3-[(3,4-difluorophenyl)carbonyl]-1,1-dimethyl-1,2,3,6-tetrahydroazepino[4,5-b]indol-5-yl}carbonyl)-beta-alanine] | > 10000 |  | 
CNC(=O)Oc1ccc2c3c([nH]c2c1)C(C(=O)OC(C)C)=CN(C(=O)c1ccc(F)c(F)c1)CC3(C)C [Example 102, 1-methylethyl 3-[(3,4-difluorophenyl)carbonyl]-1,1-dimethyl-8-{[(methylamino)carbonyl]oxy}-1,2,3,6-tetrahydroazepino[4,5-b]indole-5-carboxylate] |  | < 40 | 10 to 100
CCN(CC)CCOc1ccc2c3c([nH]c2c1)C(C(=O)OC(C)C)=CN(C(=O)c1ccc(F)c(F)c1)CC3(C)C [Example 103, 1-methylethyl 8-{[2-(diethylamino)ethyl]oxy}-3-[(3,4-difluorophenyl)carbonyl]-1,1-dimethyl-1,2,3,6-tetrahydroazepino[4,5-b]indole-5-carboxylate] | 100 to 1000 | < 40 | 
CCN(CC)CCCOc1ccc2c3c([nH]c2c1)C(C(=O)OC(C)C)=CN(C(=O)c1ccc(F)c(F)c1)CC3(C)C [Example 104] | 100 to 1000 | 60 to 80 | 
COCCOc1ccc2c3c([nH]c2c1)C(C(=O)OC(C)C)=CN(C(=O)c1ccc(F)c(F)c1)CC3(C)C [Example 105, 1-methylethyl 3-[(3,4-difluorophenyl)carbonyl]-1,1-dimethyl-8-{[2-(methyloxy)ethyl]oxy}-1,2,3,6-tetrahydroazepino[4,5-b]indole-5-carboxylate] | 100 to 1000 | 80 to 100 | 
CC(=O)C1=CN(C(=O)c2ccc(F)c(F)c2)CC(C)(C)c2c1[nH]c1ccccc21 [Example 106, 1-{3-[(3,4-difluorophenyl)carbonyl]-1,1-dimethyl-1,2,3,6-tetrahydroazepino[4,5-b]indol-5-yl}ethanone] | 100 to 1000 | > 100 | 
CC(C)OC(=O)C1=CN(C(=O)c2ccc(CN(C)C)cc2)CC(C)(C)c2c1[nH]c1ccccc21 [Example 107, 1-methylethyl 3-({4-[(dimethylamino)methyl]phenyl}carbonyl)-1,1-dimethyl-1,2,3,6-tetrahydroazepino[4,5-b]indole-5-carboxylate] | 1000 to 10000 | > 100 | 
